Data on 13 compounds can be found in PubChem BioAssay (NCI).

Structures are written as SMILES. “And” between values parts separate entries of the source, which are not always exact repeats. Equal values may be shown once.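 Step 1: Grow cells in 96-well plates. Step 2: Expose to compound for 48 hours at 5 concentrations. Step 3: Interpolate endpoints linearly; if unreached, use highest concentration. GI50 is the concentration that inhibits growth by half. TGI marks complete inhibition of growth.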

Test systems include 786-0 renal; CAKI-1 renal; EKVX NSCLC; IGROV1 ovarian; MDA-MB-231 breast; NCI-H522 lung; NCI/ADR-RES ovarian; SW-620 colon; UACC-257 melanoma; A498 renal.
Assay in all cases: NCI tumour cell line growth inhibition, 48 h

For the compound `CCCN1C(=O)/C(=C/c2ccc(O)cc2)SC1=Nc1ccccc1`, the GI50 in the assay with 786-0 renal is 20.5 µM; in the assay on CAKI-1 renal it was 21.6 µM; with EKVX NSCLC it was 14.5 µM; in the assay on IGROV1 ovarian, 38 µM; with MDA-MB-231 breast, 16 µM; in the assay with NCI-H522 lung, 39.7 µM. The results for the GI50 with NCI/ADR-RES ovarian, with SW-620 colon and with UACC-257 melanoma were 20.4 µM, 37.8 µM and above 100 µM, respectively. Besides, the TGI was 36.9 µM with 786-0 renal; 38.8 µM in the assay with CAKI-1 renal; 32.1 µM in the assay with EKVX NSCLC; above 100 µM with IGROV1 ovarian; 36.6 µM in the assay with MDA-MB-231 breast; above 100 µM in the assay with NCI-H522 lung. Moreover, the TGI in the assay with NCI/ADR-RES ovarian is 36.4 µM; in the assay on SW-620 colon, above 100 µM; with UACC-257 melanoma, above 100 µM.
`CCC(=O)Nc1ccc2c(c1)CN1C(=O)c3ccccc3C1=N2`: the GI50 in the assay with 786-0 renal, in the assay with CAKI-1 renal, in the assay with IGROV1 ovarian, with MDA-MB-231 breast, in the assay on NCI-H522 lung and in the assay with NCI/ADR-RES ovarian was above 100 µM throughout. The GI50 in the assay with SW-620 colon and in the assay on UACC-257 melanoma was above 100 µM each time. The TGI in the assay on 786-0 renal, in the assay with CAKI-1 renal, in the assay with IGROV1 ovarian, in the assay with MDA-MB-231 breast, with NCI-H522 lung and with NCI/ADR-RES ovarian was above 100 µM in each case. Moreover, the TGI with SW-620 colon and in the assay on UACC-257 melanoma was above 100 µM each time.
For `CCCCCCCCO/N=C\c1c2c(O)c3c(O)c(C)c4c(c3c1O)C(=O)C(C)(O/C=C\C(OC)C(C)C(OC(C)=O)C(C)C(O)C(C)C(O)C(C)/C=C\C=C(\C)C(=O)N2)O4` (stereo unspecified), the GI50 in the assay with 786-0 renal is 1.13 µM; in the assay with A498 renal, 1.81 µM; with CAKI-1 renal, 1.33 µM; in the assay with EKVX NSCLC, 1.43 µM; in the assay on MDA-MB-231 breast, 1.63 µM; in the assay on NCI/ADR-RES ovarian, 1.93 µM. The GI50 in the assay on SW-620 colon is 1.77 µM; with UACC-257 melanoma it was 1.34 µM. Further, the TGI came out at 2.77 µM with 786-0 renal; 7.12 µM in the assay with A498 renal; 5.04 µM with CAKI-1 renal; 6.59 µM in the assay on EKVX NSCLC; 5.91 µM in the assay on MDA-MB-231 breast; 6.99 µM in the assay with NCI/ADR-RES ovarian. In addition, the figures for the TGI with SW-620 colon and with UACC-257 melanoma were 6.09 µM and 4.69 µM, respectively.
`O=C(CSc1nc2sc3c(c2c(=O)n1-c1ccccc1)CCCCC3)N/N=C/c1ccc(F)cc1`: the GI50 is 5.49 µM with 786-0 renal; 3.18 µM in the assay with CAKI-1 renal; 11.3 µM in the assay on EKVX NSCLC; 3.32 µM in the assay with IGROV1 ovarian; 1.04 µM in the assay with MDA-MB-231 breast; 6.77 µM with NCI-H522 lung. Further, the GI50 in the assay with NCI/ADR-RES ovarian was 2.25 µM; with SW-620 colon it was 3.14 µM; in the assay on UACC-257 melanoma, 7.54 µM. The TGI is 18.8 µM in the assay on 786-0 renal; 13.5 µM in the assay on CAKI-1 renal; 41.7 µM in the assay with EKVX NSCLC; 19.2 µM with IGROV1 ovarian; 3.27 µM in the assay with MDA-MB-231 breast; 33 µM in the assay with NCI-H522 lung. For the same compound, the TGI with NCI/ADR-RES ovarian is 6.72 µM; with SW-620 colon, 33.6 µM; in the assay with UACC-257 melanoma it was above 100 µM.
As for `Cc1cccc(Oc2ccc(Nc3ncnc4ccc(NC(=O)CN5CCN(C)CC5)cc34)cc2Cl)c1`, the GI50 with 786-0 renal is 1.59 µM; with A498 renal, 1.06 µM; in the assay with CAKI-1 renal, 1.19 µM; in the assay on EKVX NSCLC, 1.12 µM; in the assay on IGROV1 ovarian, 0.673 µM; with MDA-MB-231 breast, 1.66 µM. Besides, the GI50 in the assay with NCI/ADR-RES ovarian is 1.73 µM; in the assay with SW-620 colon, 1.69 µM; with UACC-257 melanoma, 1.9 µM. Further, the TGI was 2.99 µM with 786-0 renal; 2.28 µM in the assay with A498 renal; 2.66 µM in the assay with CAKI-1 renal; 2.64 µM with EKVX NSCLC; 2.38 µM in the assay on IGROV1 ovarian; 3.17 µM in the assay with MDA-MB-231 breast. The TGI came to 4.24 µM in the assay on NCI/ADR-RES ovarian, 3.27 µM in the assay on SW-620 colon and 3.85 µM in the assay on UACC-257 melanoma.
On to `C/C=C/C/C=C/CCC(=O)C1OC1C(N)=O` (stereo unspecified), for which the TGI turned out to be 25.8 µM with 786-0 renal; 29.8 µM in the assay with CAKI-1 renal; 36.4 µM in the assay on EKVX NSCLC; 31.8 µM in the assay on IGROV1 ovarian; 31.1 µM with MDA-MB-231 breast; 25.8 µM in the assay with NCI-H522 lung. For the same compound, the figures for the TGI with NCI/ADR-RES ovarian, in the assay on SW-620 colon and in the assay on UACC-257 melanoma were 50.1 µM, 42.3 µM and 31.1 µM, respectively.
As to `N#Cc1c(N)nc(N2CCOCC2)c(C#N)c1-c1cccc(O)c1`, the GI50 in the assay with 786-0 renal is above 100 µM; with A498 renal, 14.8 µM; in the assay on CAKI-1 renal, above 100 µM; in the assay with EKVX NSCLC, 73.5 µM; in the assay with IGROV1 ovarian it was 18.7 µM; in the assay with MDA-MB-231 breast, 71.2 µM. For the same compound, the GI50 with NCI/ADR-RES ovarian, in the assay on SW-620 colon and in the assay with UACC-257 melanoma was above 100 µM throughout. Moreover, the TGI in the assay with 786-0 renal is above 100 µM; in the assay on A498 renal it was 58.3 µM; in the assay on CAKI-1 renal, above 100 µM; in the assay with EKVX NSCLC, above 100 µM; in the assay with IGROV1 ovarian it was 61.2 µM; in the assay on MDA-MB-231 breast, above 100 µM. The TGI in the assay with NCI/ADR-RES ovarian, in the assay with SW-620 colon and in the assay on UACC-257 melanoma was above 100 µM each time.
With `COc1ccc2c(c1)/C(=C/c1c(-c3ccc(C)cc3)nc3sc(C)cn13)C(=O)N2`, the GI50 in the assay on 786-0 renal is 6.68 µM; in the assay on A498 renal, 20.2 µM; with CAKI-1 renal, 35.3 µM; in the assay with EKVX NSCLC, 9.62 µM; in the assay with IGROV1 ovarian it was 32.9 µM; in the assay on MDA-MB-231 breast, 13.3 µM. Moreover, the GI50 was 13.5 µM in the assay on NCI-H522 lung, 16.8 µM in the assay with SW-620 colon and 16.8 µM with UACC-257 melanoma. The TGI in the assay on 786-0 renal was 50.2 µM; in the assay with A498 renal, 60.6 µM; in the assay on CAKI-1 renal it was above 100 µM; in the assay on EKVX NSCLC it was above 100 µM; in the assay on IGROV1 ovarian, above 100 µM; in the assay on MDA-MB-231 breast, above 100 µM. In addition, the results for the TGI in the assay on NCI-H522 lung, in the assay on SW-620 colon and with UACC-257 melanoma were above 100 µM, above 100 µM and 57.1 µM, respectively.
Regarding `Cc1cc2c(cc1C)[n+](=O)c(C(=O)c1cccs1)c(C(F)(F)F)n2[O-]`, the GI50 in the assay on 786-0 renal was 23 µM and 6.76 µM; with CAKI-1 renal it was 2.32 µM and 2.48 µM; in the assay with EKVX NSCLC it was 0.915 µM and 1.17 µM; in the assay with IGROV1 ovarian, 0.683 µM; in the assay with MDA-MB-231 breast, 1.1 µM and 1.67 µM; with NCI-H522 lung it was 2.29 µM and 2.17 µM. Moreover, the GI50 was 6.4 µM and 3.28 µM in the assay with NCI/ADR-RES ovarian; 2.48 µM and 11.5 µM with SW-620 colon; 2.4 µM and 2.61 µM in the assay with UACC-257 melanoma. The TGI in the assay with 786-0 renal is 50 µM and 24.5 µM; in the assay on CAKI-1 renal it was 9.59 µM and 13.2 µM; in the assay with EKVX NSCLC, 3.22 µM and 4.15 µM; in the assay on IGROV1 ovarian it was 5.31 µM; with MDA-MB-231 breast, 8.54 µM and 8 µM; in the assay on NCI-H522 lung it was 15.5 µM and 8.26 µM. In addition, the TGI was 18.6 µM and 27.2 µM with NCI/ADR-RES ovarian; 50 µM and 50.6 µM in the assay with SW-620 colon; 38 µM and 6.55 µM in the assay with UACC-257 melanoma.
Turning to `O=C1NC(=O)[C@H]2C3C=CC([C@@H]12)[C@@H]1C(=O)NC(=O)[C@H]31`, the TGI in the assay on 786-0 renal, with CAKI-1 renal, in the assay on EKVX NSCLC, in the assay with IGROV1 ovarian, with MDA-MB-231 breast and with NCI-H522 lung was above 100 µM in each case. For the same compound, the TGI in the assay on NCI/ADR-RES ovarian, with SW-620 colon and in the assay with UACC-257 melanoma was above 100 µM throughout.
As to `N#C/C(=C\c1ccc(Br)cc1)n1nnc2cc(F)c(F)cc21`, the GI50 is 1.67 µM in the assay on 786-0 renal; 1.74 µM in the assay with A498 renal; 1.37 µM in the assay on CAKI-1 renal; 1.74 µM in the assay with IGROV1 ovarian; 2.23 µM with MDA-MB-231 breast; 1.35 µM with NCI-H522 lung. Also, the GI50 in the assay on NCI/ADR-RES ovarian was 2.3 µM; in the assay on SW-620 colon, 1.55 µM. The TGI with 786-0 renal worked out at 3.18 µM; with A498 renal, 3.2 µM; in the assay with CAKI-1 renal, 2.79 µM; with IGROV1 ovarian, 3.77 µM; with MDA-MB-231 breast, 5.92 µM; in the assay on NCI-H522 lung it was 3.25 µM. The results for the TGI with NCI/ADR-RES ovarian and in the assay with SW-620 colon were above 100 µM and 3.32 µM, respectively.
Regarding `O=C1C(Br)=C(c2ccccc2)C(c2ccccc2)=C1c1ccccc1`, the TGI in the assay with 786-0 renal was determined as 4.26 µM; in the assay on A498 renal, 29.9 µM; with CAKI-1 renal, 6.06 µM; in the assay with EKVX NSCLC it was 18 µM; in the assay with IGROV1 ovarian, 10.6 µM; in the assay on MDA-MB-231 breast, 6.05 µM. For the same compound, the TGI amounted to 1.77 µM with NCI-H522 lung, 3.26 µM with SW-620 colon and 9.67 µM with UACC-257 melanoma.
With `CCN(CC)CCCN1C(=O)c2c(c(C)c3c(oc4cc(O)ccc43)c2C)C1=O`, the GI50 in the assay with 786-0 renal was 1.8 µM; in the assay with A498 renal, 5.06 µM; with CAKI-1 renal, 1.62 µM; in the assay on EKVX NSCLC, 1.51 µM; in the assay on IGROV1 ovarian, 1.74 µM; in the assay on MDA-MB-231 breast it was 1.81 µM. For the same compound, the GI50 with NCI-H522 lung was 1.84 µM; in the assay on SW-620 colon, 1.73 µM; in the assay on UACC-257 melanoma, 1.81 µM. In addition, the TGI in the assay on 786-0 renal was 3.43 µM; in the assay on A498 renal, 16.9 µM; in the assay on CAKI-1 renal, 3.05 µM; in the assay on EKVX NSCLC, 3.16 µM; with IGROV1 ovarian, 3.4 µM; in the assay with MDA-MB-231 breast it was 3.47 µM. Besides, the figures for the TGI with NCI-H522 lung, in the assay on SW-620 colon and in the assay on UACC-257 melanoma were 3.66 µM, 3.25 µM and 3.62 µM, respectively.
